According to publication PMC6817905, “Inhibition of translation termination by small molecules targeting ribosomal release factors” (Scientific Reports, 2019):

Key:
[1] = target: PTC of the ribosome; set-up: method as in PMID 23824292; conditions: read-out: Apparent Ki, peptide release; cited from earlier work
[2] = target: PTC of the ribosome; set-up: method as in PMID 23824292; conditions: fold higher Ki than for termination; cited from earlier work
[3] = system: Staphylococcus aureus strain ATCC29213; test: MIC on bacterial growth, wt S. aureus (broth micro-dilution); format: cell-based
Description: The minimal inhibitory concentrations (MIC) of the drugs were measured in 96-well round-bottom microtiter plates using cation-adjusted Mueller-Hinton II (MH II) media. All measurements were done with at least three biological replicates. Briefly, bacterial colonies from a non-selective agar plate were re-suspended in 0.9% NaCl to 0.5 McFarland ( ≅1.5×10^8 cfu/ml). The cell suspension was further diluted to ≅5×10^5 cfu/ml (50 µl of bacterial suspension to 10 ml of MHII) and then 90 µl of cell suspension ( ≅5×10^5 cfu/l) was added to each well. […] The MIC value was determined visually as the lowest concentration of drug that inhibited growth.

[4] = system: Escherichia coli strain MG1655; test: MIC on bacterial growth, wt E. coli (broth micro-dilution); format: cell-based; conditions: 500 mg l^−1 highest concentration tested
Description: The four different strains analyzed were wild type (wt) Staphylococcus aureus (strain ATCC 29213), wt Escherichia coli (strain MG1655, K12), a drug-hypersensitive E. coli lpxC mutant D22 (strain MG1655) and an efflux-defective E. coli ΔtolC mutant (strain MG1655). These were grown in cation-adjusted Mueller Hinton II media (MH II, Nordic Biolabs), the standard medium for antibiotic susceptibility testing. For overnight cell cultures one colony from a MH II (Nordic Biolabs) plate was inoculated in 1 ml MH II media in a 10 ml tube and the bacteria was incubated at 37 °C shaking at 190 rpm. Cells from the overnight culture was used for MIC determinations and time-kill experiments.
The minimal inhibitory concentrations (MIC) of the drugs were measured in 96-well round-bottom microtiter plates using cation-adjusted Mueller-Hinton II (MH II) media. All measurements were done with at least three biological replicates. Briefly, bacterial colonies from a non-selective agar plate were re-suspended in 0.9% NaCl to 0.5 McFarland ( ≅1.5×10^8 cfu/ml). The cell suspension was further diluted to ≅5×10^5 cfu/ml (50 µl of bacterial suspension to 10 ml of MHII) and then 90 µl of cell suspension ( ≅5×10^5 […]) was added to each well. […] The MIC value was determined visually as the lowest concentration of drug that inhibited growth.

| Compound | Ki [1] [nM] | Ki for peptide bond formation relative to termination reaction [2] [fold] | MIC S. aureus wt [3] [µg/mL] | MIC E. coli K12 wt [4] [µg/mL] |
| --- | --- | --- | --- | --- |
| CN(CC[C@H](N)CC(=O)N[C@H]1C=C[C@H](n2ccc(N)nc2=O)O[C@@H]1C(=O)O)C(=N)N [Blasticidin S] | ~30 | 6 |  |  |
| kirromycin |  |  | 100 | 50 |
